Source: ChEMBL document CHEMBL4002643, “Tubulin-binding dibenz[c,e]oxepines: Part 2. Structural variation and biological evaluation as tumour vasculature disrupting agents” (Bioorg Med Chem, 2017)

What was measured:
[1] = test system: NCI-H226; experiment: Cytotoxicity against human NCI-H226 cells assessed as growth inhibition after 48 hrs by SRB assay; type: functional; conditions: NCI-H226, 48 h
[2] = test system: HL-60(TB); experiment: Cytotoxicity against human HL-60(TB) cells assessed as growth inhibition after 48 hrs by SRB assay; type: functional; conditions: HL-60, 48 h
[3] = test system: UACC-62; experiment: Cytotoxicity against human UACC62 cells assessed as growth inhibition after 48 hrs by SRB assay; type: functional; conditions: UACC-62, 48 h
[4] = Inhibition of porcine tubulin assembly measured for 30 mins by UV/visible spectrophotometric method; set-up: species or system Sus scrofa
[5] = test system: OVCAR-3; experiment: Cytotoxicity against human OVCAR3 cells assessed as growth inhibition after 48 hrs by SRB assay; type: functional; conditions: OVCAR-3, 48 h
[6] = test system: SF-295; experiment: Cytotoxicity against human SF295 cells assessed as growth inhibition after 48 hrs by SRB assay; type: functional; conditions: SF-295, 48 h
[7] = test system: NCI-H522; experiment: Cytotoxicity against human NCI-H522 cells assessed as growth inhibition after 48 hrs by SRB assay; type: functional; conditions: NCI-H522, 48 h
[8] = test system: MCF7; experiment: Cytotoxicity against human MCF7 cells assessed as growth inhibition after 48 hrs by SRB assay; type: functional; conditions: MCF7, 48 h
[9] = test system: SK-MEL-2; experiment: Cytotoxicity against human SK-MEL-2 cells assessed as growth inhibition after 48 hrs by SRB assay; type: functional; conditions: SK-MEL-2, 48 h
[10] = test system: T47D; experiment: Cytotoxicity against human T47D cells assessed as growth inhibition after 48 hrs by SRB assay; type: functional
[11] = test system: U-251; experiment: Cytotoxicity against human U251 cells assessed as growth inhibition after 48 hrs by SRB assay; type: functional; conditions: U-251, 48 h
[12] = test system: NCI-H322M; experiment: Cytotoxicity against human NCI-H322M cells assessed as growth inhibition after 48 hrs by SRB assay; type: functional
[13] = test system: SF-268; experiment: Cytotoxicity against human SF268 cells assessed as growth inhibition after 48 hrs by SRB assay; type: functional; conditions: SF-268, 48 h
[14] = test system: A549; experiment: Cytotoxicity against human A549 cells assessed as growth inhibition after 48 hrs by SRB assay; type: functional; conditions: A549, 48 h
[15] = test system: SK-OV-3; experiment: Cytotoxicity against human SKOV3 cells assessed as growth inhibition after 48 hrs by SRB assay; type: functional; conditions: SK-OV-3, 48 h
[16] = test system: Hs-578T; experiment: Cytotoxicity against human Hs 578T cells assessed as growth inhibition after 48 hrs by SRB assay; type: functional
[17] = test system: NCI/ADR-RES; experiment: Cytotoxicity against human NCI-ADR-RES cells assessed as growth inhibition after 48 hrs by SRB assay; type: functional
[18] = test system: K562; experiment: Cytotoxicity against human K562 cells assessed as growth inhibition after 5 days by MTT assay; type: functional, cell-based; conditions: K562, 120 h
[19] = test system: SF-539; experiment: Cytotoxicity against human SF539 cells assessed as growth inhibition after 48 hrs by SRB assay; type: functional; conditions: SF-539, 48 h
[20] = test system: 786-0; experiment: Cytotoxicity against human 786-0 cells assessed as growth inhibition after 48 hrs by SRB assay; type: functional; conditions: 786-0, 48 h
[21] = test system: BT-549; experiment: Cytotoxicity against human BT549 cells assessed as growth inhibition after 48 hrs by SRB assay; type: functional; conditions: BT-549, 48 h
[22] = test system: SNB-75; experiment: Cytotoxicity against human SNB75 cells assessed as growth inhibition after 48 hrs by SRB assay; type: functional; conditions: SNB-75, 48 h
[23] = test system: SW-620; experiment: Cytotoxicity against human SW620 cells assessed as growth inhibition after 48 hrs by SRB assay; type: functional; conditions: SW-620, 48 h
[24] = test system: UO-31; experiment: Cytotoxicity against human UO31 cells assessed as growth inhibition after 48 hrs by SRB assay; type: functional; conditions: UO-31, 48 h
[25] = test system: PC-3; experiment: Cytotoxicity against human PC3 cells assessed as growth inhibition after 48 hrs by SRB assay; type: functional; conditions: PC-3, 48 h
[26] = test system: RPMI-8226; experiment: Cytotoxicity against human RPMI8226 cells assessed as growth inhibition after 48 hrs by SRB assay; type: functional; conditions: RPMI-8226, 48 h
[27] = test system: MDA-MB-468; experiment: Cytotoxicity against human MDA-MB-468 cells assessed as growth inhibition after 48 hrs by SRB assay; type: functional; conditions: MDA-MB-468, 48 h
[28] = test system: OVCAR-4; experiment: Cytotoxicity against human OVCAR4 cells assessed as growth inhibition after 48 hrs by SRB assay; type: functional; conditions: OVCAR-4, 48 h
[29] = test system: A498; experiment: Cytotoxicity against human A498 cells assessed as growth inhibition after 48 hrs by SRB assay; type: functional; conditions: A498, 48 h
[30] = test system: KM12; experiment: Cytotoxicity against human KM12 cells assessed as growth inhibition after 48 hrs by SRB assay; type: functional; conditions: KM12, 48 h
[31] = test system: COLO 205; experiment: Cytotoxicity against human COLO205 cells assessed as growth inhibition after 48 hrs by SRB assay; type: functional; conditions: COLO 205, 48 h
[32] = test system: RXF 393; experiment: Cytotoxicity against human RXF393 cells assessed as growth inhibition after 48 hrs by SRB assay; type: functional; conditions: RXF 393, 48 h
[33] = test system: OVCAR-8; experiment: Cytotoxicity against human OVCAR8 cells assessed as growth inhibition after 48 hrs by SRB assay; type: functional; conditions: OVCAR-8, 48 h
[34] = test system: MOLT-4; experiment: Cytotoxicity against human MOLT4 cells assessed as growth inhibition after 48 hrs by SRB assay; type: functional; conditions: MOLT-4, 48 h
[35] = test system: SK-MEL-28; experiment: Cytotoxicity against human SK-MEL-28 cells assessed as growth inhibition after 48 hrs by SRB assay; type: functional; conditions: SK-MEL-28, 48 h
[36] = test system: IGROV-1; experiment: Cytotoxicity against human IGROV1 cells assessed as growth inhibition after 48 hrs by SRB assay; type: functional; conditions: IGROV-1, 48 h
[37] = test system: MDA-MB-231; experiment: Cytotoxicity against human MDA-MB-231 cells assessed as growth inhibition after 48 hrs by SRB assay; type: functional; conditions: MDA-MB-231, 48 h
[38] = test system: MDA-MB-435; experiment: Cytotoxicity against human MDA-MB-435 cells assessed as growth inhibition after 48 hrs by SRB assay; type: functional; conditions: MDA-MB-435, 48 h
[39] = test system: HOP-62; experiment: Cytotoxicity against human HOP62 cells assessed as growth inhibition after 48 hrs by SRB assay; type: functional; conditions: HOP-62, 48 h
[40] = test system: UACC-257; experiment: Cytotoxicity against human UACC257 cells assessed as growth inhibition after 48 hrs by SRB assay; type: functional; conditions: UACC-257, 48 h
[41] = test system: NCI-H23; experiment: Cytotoxicity against human NCI-H23 cells assessed as growth inhibition after 48 hrs by SRB assay; type: functional; conditions: NCI-H23, 48 h
[42] = test system: CAKI-1; experiment: Cytotoxicity against human Caki1 cells assessed as growth inhibition after 48 hrs by SRB assay; type: functional; conditions: CAKI-1, 48 h
[43] = test system: SR; experiment: Cytotoxicity against human SR cells assessed as growth inhibition after 48 hrs by SRB assay; type: functional
[44] = test system: HCT-15; experiment: Cytotoxicity against human HCT15 cells assessed as growth inhibition after 48 hrs by SRB assay; type: functional; conditions: HCT-15, 48 h
[45] = test system: HCT-116; experiment: Cytotoxicity against human HCT116 cells assessed as growth inhibition after 48 hrs by SRB assay; type: functional; conditions: HCT-116, 48 h
[46] = test system: SNB-19; experiment: Cytotoxicity against human SNB19 cells assessed as growth inhibition after 48 hrs by SRB assay; type: functional; conditions: SNB-19, 48 h

COc1ccc2c(c1)COCc1cc(OC)c(OC)c(OC)c1-2
GI50 [1]: 1580 nM | GI50 [2]: 40 nM | GI50 [3]: 80 nM | IC50 [4]: 7400 nM | GI50 [5]: 50 nM | GI50 [6]: 60 nM | GI50 [7]: 280 nM | GI50 [8]: 40 nM | GI50 [9]: 100 nM | GI50 [10]: > 100000 nM | GI50 [11]: 100 nM | GI50 [12]: 2040 nM | GI50 [13]: 460 nM | GI50 [14]: 130 nM | GI50 [15]: 130 nM | GI50 [16]: 240 nM | GI50 [17]: 70 nM | IC50 [18]: 110000 nM | GI50 [19]: 160 nM | GI50 [20]: 340 nM | GI50 [21]: 200 nM | GI50 [22]: 90 nM | GI50 [23]: 50 nM | GI50 [24]: 15100 nM | GI50 [25]: 480 nM | GI50 [26]: 330 nM | GI50 [27]: 30 nM | GI50 [28]: 740 nM | GI50 [29]: 170 nM | GI50 [30]: 50 nM | GI50 [31]: 110 nM | GI50 [32]: 80 nM | GI50 [33]: 310 nM | GI50 [34]: 90 nM | GI50 [35]: 80 nM | GI50 [36]: 850 nM | GI50 [37]: 590 nM | GI50 [38]: 30 nM | GI50 [39]: 1120 nM | GI50 [40]: > 100000 nM | GI50 [41]: 440 nM | GI50 [42]: 30200 nM | GI50 [43]: 40 nM | GI50 [44]: 80 nM | GI50 [45]: 50 nM | GI50 [46]: 980 nM

COc1ccc2c(c1OP(=O)([O-])[O-])COCc1cc(OC)c(OC)c(OC)c1-2.[Na+].[Na+]
GI50 [1]: 2820 nM | GI50 [2]: 320 nM | GI50 [3]: 5500 nM | IC50 [4]: 1400 nM | GI50 [5]: 280 nM | GI50 [6]: 320 nM | GI50 [7]: 300 nM | GI50 [8]: 400 nM | GI50 [9]: 5370 nM | GI50 [10]: 8510 nM | GI50 [11]: 480 nM | GI50 [12]: 1320 nM | GI50 [13]: 790 nM | GI50 [14]: 420 nM | GI50 [15]: 400 nM | GI50 [16]: 240 nM | GI50 [17]: 280 nM | IC50 [18]: 230 nM | GI50 [19]: 330 nM | GI50 [20]: 720 nM | GI50 [21]: 2240 nM | GI50 [22]: 540 nM | GI50 [23]: 400 nM | GI50 [24]: 19500 nM | GI50 [25]: 560 nM | GI50 [26]: 460 nM | GI50 [27]: 1150 nM | GI50 [28]: 1290 nM | GI50 [29]: 18600 nM | GI50 [30]: 300 nM | GI50 [31]: 620 nM | GI50 [32]: 210 nM | GI50 [33]: 420 nM | GI50 [34]: 400 nM | GI50 [35]: 890 nM | GI50 [36]: 4070 nM | GI50 [37]: 710 nM | GI50 [38]: 40 nM | GI50 [39]: 790 nM | GI50 [40]: 4680 nM | GI50 [41]: 710 nM | GI50 [42]: 790 nM | GI50 [43]: 190 nM | GI50 [44]: 440 nM | GI50 [45]: 430 nM | GI50 [46]: 510 nM

COc1ccc2c(c1O)COCc1cc(OC)c(OC)c(OC)c1-2
GI50 [1]: 3470 nM | GI50 [2]: 30 nM | GI50 [3]: 1000 nM | IC50 [4]: 2200 nM | GI50 [5]: 210 nM | GI50 [6]: 270 nM | GI50 [7]: 40 nM | GI50 [8]: 70 nM | GI50 [9]: 260 nM | GI50 [10]: 33900 nM | GI50 [11]: 300 nM | GI50 [12]: 520 nM | GI50 [13]: 90 nM | GI50 [14]: 350 nM | GI50 [15]: 70 nM | GI50 [16]: 40 nM | GI50 [17]: 50 nM | IC50 [18]: 34000 nM | GI50 [19]: 50 nM | GI50 [20]: 430 nM | GI50 [21]: 260 nM | GI50 [22]: 70 nM | GI50 [23]: 50 nM | GI50 [24]: 14500 nM | GI50 [25]: 280 nM | GI50 [26]: 320 nM | GI50 [27]: 220 nM | GI50 [28]: 710 nM | GI50 [29]: 3020 nM | GI50 [30]: 50 nM | GI50 [31]: 500 nM | GI50 [32]: 40 nM | GI50 [33]: 200 nM | GI50 [34]: 60 nM | GI50 [35]: 1580 nM | GI50 [36]: 630 nM | GI50 [37]: 270 nM | GI50 [38]: 30 nM | GI50 [39]: 630 nM | GI50 [40]: > 100000 nM | GI50 [41]: 760 nM | GI50 [42]: 830 nM | GI50 [43]: 40 nM | GI50 [44]: 80 nM | GI50 [45]: 320 nM | GI50 [46]: 140 nM
